From US8192962B2, “Processes for detecting toxic substances” (Daikin Industries, Ltd., priority 2001, dated 2012)

System: Metabolism protein genes
Test: DNA chip mRNA expression in yeast, metabolism protein genes (Table 7)
Assay type: cell-based, Saccharomyces cerevisiae S288C
Description: Yeast (Saccharomyces cerevisiae S288C (α SUC2mal mel gap2 CUP1)) were incubated at 25° C. on YPD medium (yeast extract 1%, polypepton 2%, glucose 2%). One of toxic chemical substances was added to the cells at logarithmic growth phase, and the cells were further incubated for two hours. Cells were cultured without any chemical substance in the same condition, and were used as control. Concentrations of the chemical substances were defined to inhibit the growth of the yeast but not lead to death.
After completion of the incubation, the culture was centrifuged to collect the cells. To the cells, sodium acetate buffer (50 mM sodium acetate, 10 mM EDTA, 1% SDS) was added, and the mixture was shaken at 65° C. for five minutes, followed by returning to room temperature, and obtaining the supernatant, of which the procedures were repeated two times. To the supernatant, ½ amount of a solution of phenol/chloroform was added, and the mixture was centrifuged to give a supernatant, which was added with an equal amount of chloroform, and the mixture was centrifuged to give a supernatant. To the supernatant, an equal amount of isopropanol containing 0.3 M sodium acetate was added, and the mixture was allowed to stand at room temperature for 30 minutes, after which the mixture was centrifuged to give a sediment of the whole RNAs. Seventy % ethanol was added to the sediment, and the mixture was again centrifuged to give a sediment, which was then dried and dissolved in water. mRNA was isolated from the whole RNAs as followings. In view of the fact that a poly A chain is attached to the 3′ terminus of mRNA, a polynucleotide having a poly T structure which was immobilized on the surface of latex beads was used to trap the mRNA, and then the mRNA was washed and eluted with spine column (Oligotex-dT30<Super>mRNA Purification Kit, Takara). Reverse transcription of the mRNA was conducted with a reverse transcriptase (Super Script II Reverse Transcriptase; catalogue No. 18064-014, GibcoBRL) using fluorescence-labeled nucleotides to give cDNAs that were introduced with Cy3-dUTP or Cy5-dUTP during the reverse transcription.
The labeled cDNAs were dissolved in TE buffer (10mM Tris-HCl/1 mM EDTA, pH8.0), and the solution was dropped on the DNA chip containing the whole genes of yeast (DNA Chip Research Inc. Japan) so that the cDNAs were hybridized on the DNA chip at 65° C. for over 12 hours. The fluoresces intensity of the DNA chip was read with a scanner, and the ratio relative to the fluorescence intensity resulting from the absence of chemical substance was estimated as the following, which is shown in Tables 1 to 9: […]

## C[S+](C)[O-] [(15), dimethylsulfoxide]
Yeast gene YAL012W
  The level of expressed mRNA in the presence of chemical substance/The level of expressed mRNA in the absence of chemical substance: 3.1
Yeast gene YAL038W
  The level of expressed mRNA in the presence of chemical substance/The level of expressed mRNA in the absence of chemical substance: 3.1
Yeast gene YAL044C
  The level of expressed mRNA in the presence of chemical substance/The level of expressed mRNA in the absence of chemical substance: 0.7
Yeast gene YAL054C
  The level of expressed mRNA in the presence of chemical substance/The level of expressed mRNA in the absence of chemical substance: 0.9
Yeast gene YAR071W
  The level of expressed mRNA in the presence of chemical substance/The level of expressed mRNA in the absence of chemical substance: 1.1
Yeast gene YBL001C
  The level of expressed mRNA in the presence of chemical substance/The level of expressed mRNA in the absence of chemical substance: 1.0
Yeast gene YBR003W
  level of expressed mRNA in the presence/in the absence of chemical substance: 0.7
Yeast gene YBR011C
  level of expressed mRNA in the presence/in the absence of chemical substance: 2.1
Yeast gene YBR014C
  The level of expressed mRNA in the presence of chemical substance/The level of expressed mRNA in the absence of chemical substance: 1.2
Yeast gene YBR020W
  level of expressed mRNA in the presence/in the absence of chemical substance: 1.3
Yeast gene YBR023C
  The level of expressed mRNA in the presence of chemical substance/The level of expressed mRNA in the absence of chemical substance: 2.8
Yeast gene YBR029C
  The level of expressed mRNA in the presence of chemical substance/The level of expressed mRNA in the absence of chemical substance: 3.5
Yeast gene YBR035C
  The level of expressed mRNA in the presence of chemical substance/The level of expressed mRNA in the absence of chemical substance: 0.7
Yeast gene YBR068C
  The level of expressed mRNA in the presence of chemical substance/The level of expressed mRNA in the absence of chemical substance: 1.6
Yeast gene YBR111C
  The level of expressed mRNA in the presence of chemical substance/The level of expressed mRNA in the absence of chemical substance: 0.7
Yeast gene YBR183W
  The level of expressed mRNA in the presence of chemical substance/The level of expressed mRNA in the absence of chemical substance: 1.1
Yeast gene YBR256C
  The level of expressed mRNA in the presence of chemical substance/The level of expressed mRNA in the absence of chemical substance: 1.6
Yeast gene YCL009C
  The level of expressed mRNA in the presence of chemical substance/The level of expressed mRNA in the absence of chemical substance: 6.5
Yeast gene YCR010C
  level of expressed mRNA in the presence/in the absence of chemical substance: 1.2
Yeast gene YCR034W
  level of expressed mRNA in the presence/in the absence of chemical substance: 0.9
Yeast gene YCR037C
  The level of expressed mRNA in the presence of chemical substance/The level of expressed mRNA in the absence of chemical substance: 1.0
Yeast gene YCR048W
  The level of expressed mRNA in the presence of chemical substance/The level of expressed mRNA in the absence of chemical substance: 3.1
Yeast gene YCR098C
  The level of expressed mRNA in the presence of chemical substance/The level of expressed mRNA in the absence of chemical substance: 11.0
Yeast gene YDL021W
  The level of expressed mRNA in the presence of chemical substance/The level of expressed mRNA in the absence of chemical substance: 0.7
Yeast gene YDL022W
  The level of expressed mRNA in the presence of chemical substance/The level of expressed mRNA in the absence of chemical substance: 0.9
Yeast gene YDR050C
  level of expressed mRNA in the presence/in the absence of chemical substance: 1.9
Yeast gene YDR073W
  level of expressed mRNA in the presence/in the absence of chemical substance: 0.8
Yeast gene YDR123C
  level of expressed mRNA in the presence/in the absence of chemical substance: 1.2
Yeast gene YDR178W
  level of expressed mRNA in the presence/in the absence of chemical substance: 0.7
Yeast gene YDR277C
  level of expressed mRNA in the presence/in the absence of chemical substance: 0.4
Yeast gene YDR284C
  level of expressed mRNA in the presence/in the absence of chemical substance: 0.9
Yeast gene YDR345C
  level of expressed mRNA in the presence/in the absence of chemical substance: 0.8
Yeast gene YDR380W
  The level of expressed mRNA in the presence of chemical substance/The level of expressed mRNA in the absence of chemical substance: 2.4
Yeast gene YDR400W
  level of expressed mRNA in the presence/in the absence of chemical substance: 0.8
Yeast gene YDR408C
  level of expressed mRNA in the presence/in the absence of chemical substance: 1.0
Yeast gene YDR410C
  The level of expressed mRNA in the presence of chemical substance/The level of expressed mRNA in the absence of chemical substance: 1.2
Yeast gene YDR483W
  level of expressed mRNA in the presence/in the absence of chemical substance: 1.5
Yeast gene YDR487C
  The level of expressed mRNA in the presence of chemical substance/The level of expressed mRNA in the absence of chemical substance: 1.0
Yeast gene YDR502C
  The level of expressed mRNA in the presence of chemical substance/The level of expressed mRNA in the absence of chemical substance: 8.2
Yeast gene YDR516C
  The level of expressed mRNA in the presence of chemical substance/The level of expressed mRNA in the absence of chemical substance: 0.4
Yeast gene YEL011W
  The level of expressed mRNA in the presence of chemical substance/The level of expressed mRNA in the absence of chemical substance: 0.4
Yeast gene YEL063C
  level of expressed mRNA in the presence/in the absence of chemical substance: 1.3
Yeast gene YER015W
  level of expressed mRNA in the presence/in the absence of chemical substance: 0.8
Yeast gene YER026C
  The level of expressed mRNA in the presence of chemical substance/The level of expressed mRNA in the absence of chemical substance: 4.0
Yeast gene YER053C
  The level of expressed mRNA in the presence of chemical substance/The level of expressed mRNA in the absence of chemical substance: 1.1
